Test results published in ChEMBL document CHEMBL1129026, “Rapid microscale synthesis, a new method for lead optimization using robotics and solution phase chemistry: application to the synthesis and optimization of corticotropin-releasing factor1 receptor antagonists” (J Med Chem, 1996).

Target: T1, Corticotropin-releasing factor receptor 1 (Homo sapiens, UniProt P34998)
T1 sequence (P34998 whole entry): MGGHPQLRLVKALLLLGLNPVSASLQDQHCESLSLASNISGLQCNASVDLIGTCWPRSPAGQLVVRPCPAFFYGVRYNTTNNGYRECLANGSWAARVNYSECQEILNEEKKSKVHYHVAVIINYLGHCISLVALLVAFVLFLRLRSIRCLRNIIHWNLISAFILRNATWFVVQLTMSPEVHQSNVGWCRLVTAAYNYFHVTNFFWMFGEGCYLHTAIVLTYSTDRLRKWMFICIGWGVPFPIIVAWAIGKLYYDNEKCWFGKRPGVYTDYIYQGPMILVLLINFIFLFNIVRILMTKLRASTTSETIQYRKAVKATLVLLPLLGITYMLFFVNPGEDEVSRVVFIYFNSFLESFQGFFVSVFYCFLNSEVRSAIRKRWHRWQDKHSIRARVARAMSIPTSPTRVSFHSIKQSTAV
Test: Inhibition of [125I]CRF binding to human corticotropin releasing factor receptor 1

SMILES	Ki [µM]
C=CCN(CC=C)c1nc(C)nc(Nc2c(C)cc(C)cc2C)n1	0.115
CCCN(CC1CC1)c1nc(C)nc(Nc2ccc(C)cc2)n1	> 10
CCCN(CC1CC1)c1nc(C)nc(Nc2c(C)cccc2C)n1	> 10
Cc1ccc(Nc2nc(C)nc(NCc3ccc(C(F)(F)F)cc3)n2)cc1	> 10
CCCN(Cc1ccccc1)c1nc(C)nc(Nc2c(C)cccc2C)n1	> 10
CCCCN(CCCC)c1nc(C)nc(Nc2c(C)cc(C)cc2C)n1	0.49
CCc1cccc(CC)c1Nc1nc(C)nc(NCc2ccc(C(F)(F)F)cc2)n1	55
C=CCN(CC=C)c1nc(C)nc(Nc2ccc(C)cc2)n1	> 10
CCN(Cc1ccccc1)c1nc(C)nc(Nc2c(C)cc(C)cc2C)n1	1.47
Cc1nc(NCc2ccc(C(F)(F)F)cc2)nc(Nc2c(C)cccc2C)n1	> 10
CCc1cccc(CC)c1Nc1nc(C)nc(N(CC)Cc2ccccc2)n1	1.7
CCN(Cc1ccccc1)c1nc(C)nc(Nc2ccc(C)cc2)n1	> 10
CCCN(CC1CC1)c1nc(C)nc(Nc2ccc(OC)cc2OC)n1	8
CCCN(CCC)c1nc(C)nc(Nc2c(C)cc(C)cc2C)n1	0.13
CCCN(CC1CC1)c1nc(C)nc(Nc2c(CC)cccc2CC)n1	> 10
CCN(Cc1ccccc1)c1nc(C)nc(Nc2c(C)cccc2C)n1	> 10
C=CCN(CC=C)c1nc(C)nc(Nc2c(C)cccc2C)n1	> 10
CCCN(Cc1ccccc1)c1nc(C)nc(Nc2c(CC)cccc2CC)n1	> 10
CCCCN(Cc1ccccc1)c1nc(C)nc(Nc2c(C)cc(C)cc2C)n1	1.05
CCCN(Cc1ccccc1)c1nc(C)nc(Nc2ccc(C)cc2)n1	> 10
CCCN(CC1CC1)c1nc(C)nc(Nc2ccc(C)cc2C)n1	> 10
CCCN(CC1CC1)c1nc(CC)nc(Nc2c(C)cc(C)cc2C)n1	> 10
CCCN(Cc1ccccc1)c1nc(C)nc(Nc2c(C)cc(C)cc2C)n1	0.49
